Source: patent US12617770B2, “IRAK inhibitor and preparation method therefor and use thereof” (WUHAN CREATERNA SCIENCE AND TECHNOLOGY CO., LTD., priority 2019, dated 2026)
pIC50: −log10 of the molar value.

Key:
[1] = Plasma protein binding (PPB), equilibrium dialysis, mouse plasma; assay type: in vitro ADME; settings: 5 h at 37° C., read-out: Plasma protein binding (Bound %) Mouse (converted)
Description: (§1) The experiment is intended to determine plasma protein binding (PPB) data of the test compounds disclosed herein.
(§2) In the PPB experiment, the final administration matrix contained the test compound or a reference compound with a concentration of 1 μM and DMSO with a content of 0.2%.
(§3) Collecting samples in initial time: 25 μL of the matrix containing the compound was added into a blank 96-well collecting plate, and the plate was stored at −20° C.
(§4) An equilibrated dialysis device was prepared. 100 μL of buffer was added to the receiving side of the equilibrium dialysis plate. Then 100 μL of the administration matrix containing the compound or the reference compound was added into an administration side of the equilibrium dialysis plate. The prepared equilibrium dialysis plate was placed in a 37° C. shaker to be shaken for 5 h at 60 rpm.
(§5) Sample was prepared at the end of cultivation (5 h): Preparing sample in the receiving side: 25 μL of sample from a receiving side was taken out and placed in a 96-well sample collecting plate, and 25 μL of a corresponding matrix (blank plasma) was added for mixing: 200 μL of ACN containing an internal standard was added, shaken for 10 minutes at 600 rpm, and centrifuged at 5594 g for 15 min.
(§6) Preparing sample in the administration side: 25 μL of the sample containing test compound and reference compound from the administration side was taken out and 25 μL of a blank buffer was added for mixing; 200 μL of ACN containing an internal standard was added, shaken for 10 minutes at 600 rpm, and centrifuged at 5594 g for 15 min.
(§7) Preparing sample in initial time: the sample containing test compound and reference compound was re-melted at 37° C. in initial time and then mixed with the corresponding matrix (blank buffer) in the same volume (25 μL); 200 μL of ACN containing an internal standard was added, shaken for 10 minutes at 600 rpm, and centrifuged at 5594 g for 15 min.
(§8) After all the samples were centrifuged, 50 μL of a supernatant was taken and added into 50 μL of ultrapure water for mixing, and the samples were sent to liquid chromatography-mass spectrometry.

CYP3A4 [2] = target: T1, CYP3A4 (Homo sapiens, UniProt P08684); assay: CYP450 inhibition in human liver microsomes, CYP3A4-M; assay type: in vitro ADME; settings: human, microsomes
T1 construct: The test compounds were co-incubated with the human liver microsomes and a probe substrate midazolam (CYP3A4); tissue Corning (USA); host or cells: mixed (pooled) human liver microsomes
Description: (§9) This study was intended to investigate the inhibitory effect of the test compounds on 5 major enzymes in human P450 superfamily, CYP1A2, 2C9, 2C19, 2D6 and 3A4-M. The mixed human liver microsomes used in this assay were purchased from Corning (USA). The test compound (compound 14) was co-incubated at 7 concentrations with human liver microsomes and five probe substrates (phenacetin for CYP1a2, diclofenac for CYP2C9, mephenytoin for CYP2C19, dextromethorphan for CYP2D6, midazolam for CYP3A4-M, mixed). The reaction was initiated by adding coenzyme NADPH, and terminated by adding acetonitrile containing internal standard. After the proteins were precipitated, the supernatant was centrifuged. The characteristic metabolites in the supernatant (acetaminophen for CYP1A2, 4-hydroxydiclofenac for CYP2C9, 4-hydroxymephenytoin for CYP2C19, dextrorphan for CYP2D6, 1-hydroxymidazolam for CYP3A4-M) were analyzed by LC-MS/MS. The influence of the test compounds on production of the characteristic metabolites was finally analyzed on the basis of the data obtained. A selective inhibitor (ketoconazole for CYP3A4-M) may be used as positive control. All samples were tested in duplicate.

CYP2D6 = target: T2, CYP2D6 (Homo sapiens, UniProt P10635); assay: CYP450 inhibition in human liver microsomes, CYP2D6; assay type: in vitro ADME; settings: human, microsomes
T2 construct: co-incubated at 7 concentrations with human liver microsomes and five probe substrates; tissue Corning (USA); host or cells: mixed (pooled) human liver microsomes
Description: as §9

[3] = Plasma protein binding (PPB), equilibrium dialysis, human plasma; assay type: in vitro ADME; settings: 5 h at 37° C., read-out: Plasma protein binding (Bound %) Human (converted)
Description: as §1, §2, §3, §4, §5, §6, §7, §8

[4] = Plasma protein binding (PPB), equilibrium dialysis, rat plasma; assay type: in vitro ADME; settings: 5 h at 37° C., read-out: Plasma protein binding (Bound %) Rat (converted)
Description: as §1, §2, §3, §4, §5, §6, §7, §8

human IRAK4 = target: T3, human IRAK4 (Homo sapiens, UniProt Q9NWZ3); assay: IRAK4 MSA (Mobility-Shift Assay) at Km concentration of ATP; assay type: biochemical; settings: GST-IRAK4 1 nM, ATP 37 μM (Km); read-out: IC50 for inhibiting human IRAK4 activity
T3 construct: purchased Cama (so in the source)
T3 sequence (Q9NWZ3 1-460): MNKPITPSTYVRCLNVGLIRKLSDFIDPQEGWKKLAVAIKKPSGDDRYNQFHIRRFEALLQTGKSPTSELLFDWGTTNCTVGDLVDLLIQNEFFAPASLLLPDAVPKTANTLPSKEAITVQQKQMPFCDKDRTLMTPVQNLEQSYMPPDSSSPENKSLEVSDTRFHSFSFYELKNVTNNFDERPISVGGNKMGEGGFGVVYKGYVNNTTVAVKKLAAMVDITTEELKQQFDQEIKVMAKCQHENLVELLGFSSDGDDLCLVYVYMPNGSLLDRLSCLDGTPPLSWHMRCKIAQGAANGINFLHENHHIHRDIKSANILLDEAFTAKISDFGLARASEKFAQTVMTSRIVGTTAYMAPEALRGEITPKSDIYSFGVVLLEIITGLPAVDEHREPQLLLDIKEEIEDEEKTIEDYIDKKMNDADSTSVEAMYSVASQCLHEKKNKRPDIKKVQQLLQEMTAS
Description: A recombinant fusion protein of N-terminal GST (glutathione-S-transferase) and human IRAK4 was used as enzyme (GST-IRAK4, kinase IRAK4 (Cama, CAT No. 09-145)) at a final concentration of 1 nM; ATP (Sigma. CAT No. A7699-1G) was at a final concentration of 37 μM; • the substrates used for the kinase reaction were 5-FAM (5-carboxyfluorescein)-labeled polypeptide (5-FAM-[…]-COOH) and substrate peptide FAM-P8 (GL Biochem, CAT No. 112396) at final concentrations of 5 μM.
In this assay, 500 μM stock solutions of the compounds were prepared in 100% DMSO, and serially 4-fold diluted to the 10th concentration gradient with 100% DMSO, followed by a 10-fold dilution in the compound buffer (50 mM HEPES, pH 7.5, 0.00015% Brij-35) to give intermediate dilutions of the compounds at a final concentration of 10 μM−0.04 nM containing 10% DMSO. 5 μL of the intermediate dilution was transferred into a black 384-well plate.
IRAK4 was diluted to 2.5 nM in the kinase buffer (50 mM HEPES, pH 7.5, 0.00015% Brij-35, 2 mM DTT). 10 μL of the IRAK4 dilution was transferred to the 384-well plate and co-incubated with the compound for 10-15 min.
The substrate and ATP were diluted to 12.5 μM and 92.5 μM with reaction buffer (50 mM HEPES, pH 7.5, 0.00015% Brij-35, 10 mM MgCl2), respectively. 10 μL of the dilution was transferred to a 384-well plate and incubated at 28° C. for 1 h. The reaction was terminated by adding 25 μL of 50 mM EDTA to the 384-well plate.
The inhibition rate of IRAK4 by the compounds was calculated by measuring the rate of phosphorylated substrate using a Caliper EZ Reader (PerkinElmer) and the IC50 was calculated by XL-fit software. […] In particular, some exemplary compound activity values are as follows: […]

TNF-α release = assay: Inhibition of cytokine TNF-α release in LPS-induced Balb/c female mice; assay type: in vivo; settings: oral gavage 16 h before LPS (i.p. 0.2 mg/kg); serum 1.5 h after stimulation
Description: Female Balb/c mice were randomized into groups, each containing 4 mice, including a control+vehicle group, a model+vehicle group, a model+reference group and model+compound groups. The control animals received an intraperitoneal injection of normal saline (10 mL/kg) and the model animals received LPS stimulation (Sigma CAT #L2630, i.p., 10 mL/kg, 0.2 mg/kg). To the test compounds, DMSO, Solutol and 10 mM PBS were sequentially added to prepare a solution or suspension of required concentration for administration. For the vehicle, DMSO, Solutol and 10 mM PBS were mixed in a volume ratio of 5:15:80. The animals were administered through oral gavage (10 mL/kg) 16 h before LPS (or saline) stimulation at predetermined doses, and euthanized with CO2 at 1.5 h after the stimulation for cardiac blood collection. The whole blood was not anticoagulated, incubated in wet ice for 1.5 h, and centrifuged at 2000×g at 4° C. for 10 min to separate the serum. Serum was frozen at −80° C. for TNF-α assay. Quantification of TNF-α was done by TNF-α ELISA kit according to the manufacturer's instructions. The readings of absorbance at A450 were measured with a microplate reader SpectraMax i3x (Molecular Device) for calculating the inhibition of the compounds, and IC50 was calculated with GraphPad Prism 7.0 software. […] In particular, some exemplary compound inhibition rate values are as follows: […]

[5] = Pharmacokinetic study, single oral gavage dosing; assay type: in vivo; settings: mouse, 40 mg/kg, 40 mpk, 15% solutol HS15 + 85% PBS, ICR mice, plasma
CYP3A4 [6] = target: T1, CYP3A4; assay: Time-dependent inhibition (TDI) of CYP3A4 in human liver microsomes; assay type: in vitro ADME; settings: probe substrate midazolam
Description: This study was intended to investigate the time-dependent inhibition effect of the compounds on CYP3A4 in human P450 superfamily. The mixed human liver microsomes used in this assay were purchased from Corning (USA).
The test compounds were co-incubated with the human liver microsomes and a probe substrate midazolam (CYP3A4), and the concentration of the test compounds was set at 30 μM. The reaction was initiated by adding coenzyme NADPH, and terminated by adding acetonitrile dossolved with internal standard in advance. After the proteins were precipitated, the supernatant was centrifuged. The characteristic metabolite 1-hydroxy-midazolam (CYP3A4) in the supernatant was analyzed by LC-MS/MS. The influence of the test compounds on production of the characteristic metabolites was finally analyzed on the basis of the data obtained. A selective inhibitor (verapamil for CYP3A4-M) was used as positive control.

T1 sequence (P08684 whole entry): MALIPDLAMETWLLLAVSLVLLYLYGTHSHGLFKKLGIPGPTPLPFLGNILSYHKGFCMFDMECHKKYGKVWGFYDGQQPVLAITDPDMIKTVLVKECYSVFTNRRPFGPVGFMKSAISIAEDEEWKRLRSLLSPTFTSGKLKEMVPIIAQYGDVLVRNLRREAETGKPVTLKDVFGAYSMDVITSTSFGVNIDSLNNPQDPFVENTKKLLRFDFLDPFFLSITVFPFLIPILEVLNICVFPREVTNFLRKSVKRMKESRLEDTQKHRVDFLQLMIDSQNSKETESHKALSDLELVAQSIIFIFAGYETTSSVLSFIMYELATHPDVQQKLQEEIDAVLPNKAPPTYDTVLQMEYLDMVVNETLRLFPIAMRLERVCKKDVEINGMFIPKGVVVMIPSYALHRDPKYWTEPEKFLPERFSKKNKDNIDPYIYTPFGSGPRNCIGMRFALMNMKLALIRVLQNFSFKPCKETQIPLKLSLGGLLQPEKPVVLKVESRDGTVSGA
T2 sequence (P10635 whole entry): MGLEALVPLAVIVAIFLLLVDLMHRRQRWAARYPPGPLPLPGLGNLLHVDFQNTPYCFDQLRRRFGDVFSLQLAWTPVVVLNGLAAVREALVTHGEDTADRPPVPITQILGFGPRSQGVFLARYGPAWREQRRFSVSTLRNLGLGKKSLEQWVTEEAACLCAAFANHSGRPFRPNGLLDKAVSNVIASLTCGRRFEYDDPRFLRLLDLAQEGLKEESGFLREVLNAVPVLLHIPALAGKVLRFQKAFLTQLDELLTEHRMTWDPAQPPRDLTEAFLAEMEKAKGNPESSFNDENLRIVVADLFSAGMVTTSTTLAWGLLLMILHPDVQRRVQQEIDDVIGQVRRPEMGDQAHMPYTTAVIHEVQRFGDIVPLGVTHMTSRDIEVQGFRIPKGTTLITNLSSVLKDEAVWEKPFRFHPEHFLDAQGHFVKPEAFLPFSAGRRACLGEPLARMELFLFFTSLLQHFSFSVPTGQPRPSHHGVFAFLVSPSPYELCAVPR

| Compound | fraction unbound at 5 h, 1 μM [1] | pIC50 (CYP3A4 [2]) | pIC50 (CYP2D6) | fraction unbound at 5 h, 1 μM [3] | fraction unbound at 5 h, 1 μM [4] | pIC50 (human IRAK4) | Inhibition rate (%) of TNF-α (TNF-α release) | AUC(0-t) ([5]; read-out: Area under curve AUC0-t) | AUC(0-inf) ([5]; read-out: Area under curve AUC0-∞) | MRT ([5]; read-out: Average retention time MRT) | half-life ([5]; read-out: Half life t1/2 (converted)) | Cmax ([5]; read-out: Peak concentration Cmax) | Tmax ([5]; read-out: Time to peak tmax) | TDI (3A4, 30 μM) (CYP3A4 [6]) |
| --- | --- | --- | --- | --- | --- | --- | --- | --- | --- | --- | --- | --- | --- | --- |
| CC(C)(O)CCn1cc2cc(NC(=O)c3cccc(C(F)(F)F)n3)c(C(C)(C)O)cc2n1 [A, reference compound] | 0.148 | < 4.52 | < 4.52 | 0.0098 | 0.13 |  |  |  |  |  |  |  |  |  |
| CCOc1cc2nn([C@H]3CC[C@H](O)CC3)cc2cc1NC(=O)c1cccc(C)[n+]1[O-] [Compound 016, 2-((6-ethoxy-2-((1r,4r)-4-hydroxycyclohexyl)-2H-indazol-5-yl)carbamoyl)-6-methylpyridine 1-oxide] | 0.123 |  |  | 0.131 | 0.099 | 8.09 | 78.71% |  |  |  |  |  |  |  |
| COc1cc2nn([C@H]3CC[C@H](O)CC3)cc2cc1NC(=O)c1cccc(C)[n+]1[O-] [Compound 013, 2-((2-((1r,4r)-4-hydroxycyclohexyl)-6-methoxy-2H-indazol-5-yl)carbamoyl)-6-methylpyridine 1-oxide] | 0.238 |  |  | 0.191 | 0.183 | 8.12 | 76.29% | 160 µg·h/mL | 182 µg·h/mL | 10.4 h | 7.23 h | 18900 ng/mL | 1 h |  |
| COc1cc2nn([C@H]3CC[C@H](O)CC3)cc2cc1NC(=O)c1cccc(C2CC2)[n+]1[O-] [Compound 014, 2-cyclopropyl-6-((2-((1r,4r)-4-hydroxycyclohexyl)-6-methoxy-2H-indazol-5-yl)carbamoyl)pyridine 1-oxide] |  |  |  |  |  |  |  |  |  |  |  |  |  | +3.85% |
